One data set relates to HIV-1. In words: HIV-1 syncytial plaque assay in CEM-SS cells. In kind it is cell-based. The following applies: for pEC50: read-out: Anti-HIV-1 Activity (EC50). The protocol: (§1) The inhibitory effects of PC lipids, non-PC lipid-AZT conjugates, and double-targeting PC lipid-AZT conjugate compounds of the invention on replication of HIV-1 virus in cells was examined using the plaque assay procedure described in Kucera et al. (1990, AIDS Research and Human Retroviruses, 6:491). CEM-SS cells were seeded at 50,000 cells per milliliter in RPMI growth medium as a monolayer in 96-well dishes, inoculated with 50 to 100 plaque forming units of HIV-1 and overlaid with serial dilutions of either PC lipid, non-PC lipid-AZT conjugate, or PC-lipid-AZT conjugate in RPMI-1640 growth medium supplemented with 10% fetal bovine serum. The structures of the tested compounds are described in Table 1. AZT and PC lipids were used as positive controls. […] The cytotoxicity of PC lipids, non-PC lipid-AZT conjugates and double targeting PC lipid-AZT conjugates was assessed using the procedure described in Kucera et al. (1990, AIDS Res. And Human Retrovir., 6:496, and 1998, Antiviral Chemistry and Chemotherapy, 9:160). [drawing 16]
In the plaque assay, HIV-1 syncytial plaques are seen as large, multicellular foci (10 to 25 nuclei/syncytium) that appear either brown and granular or clear. Because the number of HIV-1 syncytial plaques was correlated with reverse transcriptase (RT) and p24 core antigen activity in the HIV-1 infected cell overlay fluids, the syncytial plaque assay could be used to quantify the amount of infectious virus. Reverse transcriptase activity was assayed according to the procedure described by Poeisz et al. (1980, Proc. Natl. Acad. Sci. U.S.A. 77:7415). The activity of p24 core antigen induced by HIV-1 infection of CEM-SS cells was measured spectrophotometrically using the commercial Coulter enzyme immunoassay (EIA).

Data set [1] in a line: Cytotoxicity (TC50) of the compounds tested for anti-HIV-1 activity. It counts as cell-based, human. As to conditions: human, CEM-SS cells. On the procedure:
as §1

In data set [2] the test system is AZT-resistant clinical isolates of HIV-1. The data set can be described thus: microbe, parasite or virus in culture. It counts as cell-based. The following applies: for pEC50: mean of 2 to 4 independent tests. The protocol:
as §1
Evaluation of the clinical isolates to the compounds was performed using the plaque assay procedure described herein in Example 1. The matched pairs of clinical isolates were obtained through the AIDS Research and Reference Reagent Program, NIH, Bethesda, Md.

Data set [3] has as its system HIV-1 persistently infected H9IIIB cells. In words: Induction of defective HIV-1 in persistently infected H9IIIB cells (RT activity after infecting fresh CEM-SS cells). It counts as cell-based. The following applies: RT activity in CEM-SS overlay medium after 7 or 9 days; H9IIIB cells treated with 1.0 μM compound for 14 or 11 days. The protocol:
HIV-1 persistently infected H9IIIB cells were washed twice to remove extracellular HIV-1, resuspended in fresh growth medium with or without 1.0 μM of compound for a total of 14 days. During the treatment period, the cells were subcultured 1:3 three times a week. In addition, on days 3, 7 and 11, the cells were pelleted to remove extracellular HIV-1 before subculture in fresh growth medium with or without the compound. After 14 or 11 days of treatment, the virus was pelleted (100,000×g, 1 hr, 4 C.) from the overlay medium to remove free compound, resuspended in fresh medium without compound and assayed for RT activity. The virus suspension was normalized to 500,000 RT DPM and used to infect fresh CEM-SS cells. The infected CEM-SS cells were incubated for a total of 7 or 9 days, and the overlay medium was harvested and assayed for induction of RT activity. The % inhibition of RT activity was used as a measure of defective virus formation during the treatment period.

The nature of data set [4]: Oral administration of phospholipid-AZT conjugate in rodents (distribution, half-life). Further details: species or system rodents (mice). As to conditions: mouse, in vivo.
The next data set relates to Friend leukemia virus. As to conditions: cited from earlier work; for suppression against RT activity: INK-11 compared with AZT alone.
The subject of data set [5] is herpes simplex virus type 2. The data set can be described thus: Herpes simplex virus type 2 plaque inhibition in Vero cells. It counts as cell-based. As to conditions: acyclovir in replicate tests; read-out: EC50 against herpes simplex virus type 2. On the procedure:
Proof-of-concept of the antiviral activity of the double-targeting PC lipid-AZT conjugate compounds of the invention with respect to herpes simplex virus type 2 was evaluated and compared with that of PC lipid alone and with acyclovir (positive controls). Serial dilutions of PC lipid, PC lipid-AZT conjugate compound, or acyclovir were evaluated for inhibition of the formation of herpes simplex virus type 2 plaques in Vero cells and EC50 values were calculated from the results obtained. Briefly, the tests for anti-herpes simplex virus (HSV) activity and cytotoxicity of the compounds were performed by seeding 8×10^4 monkey kidney cells (Vero) per ml of D-MEM with 10% fetal bovine serum (FBS) in each well of a 12-well dish. The cultures were incubated at 37° C. to form a complete monolayer. To measure anti-HSV activity and effective concentration50 (EC50) each cell monolayer was infected with HSV diluted in PBS-A containing about 100 plaque forming units (PFU) per 0.1 ml. After virus attachment (1 hr., 37° C.) the infected monolayers were overlaid with E-MEM containing 2% FBS and 0.5% methyl cellulose with or without added serial concentrations of test compound. […] The EC50 values were calculated using a computer generated program.

Data set [6] in a line: Cytotoxicity in Vero cell monolayers (cell morphology). In kind it is cell-based, monkey. As to conditions: monkey, Vero cell monolayers (monkey kidney cells), 48 hours at 37° C., lowest concentration changing morphology in at least 25% of the cells, read-out: Cytotoxicity (TC50). The protocol:
To measure cytotoxicity of the compounds, the cell monolayers (described above) were treated with a serial concentration of test compound for 48 hours at 37° C. and visually examined after crystal violet staining by light microscopy for changes in cell morphology (cell rounding, shrinking, detachment) compared to an untreated control culture.

The test system of a further data set is CEM-SS cells. In words: Cytotoxicity (TC50) of the compounds tested for anti-HIV-1 activity. It counts as cell-based, human. The following applies: read-out: Cytotoxicity (TC50). On the procedure:
as §1

The test system of the next data set is human lymphocytes. In words: Metabolism of conjugate in human lymphocytes in tissue culture. It counts as in vitro ADME. On the procedure: In another set of experiments the metabolism of the compound BM21-1290 using human lymphocytes in tissue culture was assessed. […] The predominant AZT species was AZT-MP with lesser amounts of AZT-DP, AZT-TP and AZT. […] AZT-MP can be activated to AZT-TP the inhibitor of HIV-1 induced reverse transcriptase.

pEC50: −log10 of the molar value. Values joined by “and” are separate entries in the source; they are usually repeats but may differ in a detail not shown here. Equal values may be shown once. Read-outs that look alike come from different tables or passages of the source.

As usually defined, the pEC50 is −log10 of the EC50, conventionally taken in molar units. As usually defined, the half-life is the time in which the quantity being followed falls by half. `Cc1cn([C@H]2C[C@H](N=[N+]=[N-])[C@@H](CO)O2)c(=O)[nH]c1=O` [AZT, 3′-azido-3′-deoxythymidine, reference compound]: the “Differential Selectivity” value with HIV-1 (DS = ratio of TC50 for cytotoxicity to EC50 for anti-HIV activity) came out at 411. For the same compound, the pEC50 was 8.05 in the data set on HIV-1 (Human immunodeficiency virus 1, CEM-SS, 120 h); 9.00 in data set [2] (Human immunodeficiency virus 1, read-out: EC50 Pre-AZT G-762, pre-AZT isolate, patient code G-762); 8.70 in data set [2] (Human immunodeficiency virus 1, read-out: EC50 Pre-AZT H112-2, pre-AZT isolate, patient code H112-2). For the same compound, the CC50 in data set [1] amounted to 3.7 µM. Besides, the “Fold-Increase (G-762 to G-691)” value in [2] (post-AZT G-691 versus pre-AZT G-762) was determined as 165. Further, in data set [2] (text summary over both isolate pairs), the “fold increase in AZT-resistance among HIV-1 clinical isolates” value is given as 680- to 1,100 fold. Further, in data set [3], the DPM-Bkg is 5416 DPM and 6573 DPM. In addition, in data set [4] (in rodents, units given within the value, read-out: half-life of AZT alone), the half-life lay in the range of 0.5 to 1 h. The “suppression against RT activity” value with Friend leukemia virus is 98%.
In the case of `Nc1nc2c(ncn2COCCO)c(=O)[nH]1` [Acyclovir, reference compound], in data set [5], the negative logarithm of the EC50 (pEC50) was 4.90 and 4.84 and 5.18. Besides, in data set [6], the CC50 at 48 h was greater than 20 µM.
On to `CCCCCCCCCCCCSCC(COP(=O)(O)OCC1OC(n2cc(C)c(=O)[nH]c2=O)CC1N=[N+]=[N-])OCCCCCCCCCC` (stereo not shown) [BM21-1290], for which the pEC50 with HIV-1 (plaques counted after five days at 37° C., CEM-SS cells) is 7.70. In the data set on CEM-SS cells, the CC50 was 38.5 µM. In [4], the “free AZT in the plasma” value is on record as “little or no detectable free AZT in the plasma”; the half-life is 48 h; the tissue uptake result is “preferentially taken up into lymphoid tissues (lymphoma, spleen and thymus)”. In data set [4] (po), the “concentration in the brain versus plasma” value was “equivalent to the concentration of BM21-1290 in the plasma” and the oral bioavailability result was “orally bioavailable”. Also, the intracellular metabolism result with human lymphocytes is listed as “metabolized to form an alkyl-lipid plus a phosphorylated species of AZT”.
For `CCCCCCCCCCOC(CNC(=O)CCCCCCCCC)COP(=O)([O-])OCC[N+](C)(C)C` (stereo not shown) [INK-11, 1-decanamido-2-decyloxypropyl-3-phosphocholine], the “inhibition of FLV-induced pathogenesis (splenomegaly)” value in the data set with Friend leukemia virus (50 milligrams per kilogram of body weight per day for 21 days, infected mice) was 42%. For the same compound, the “suppression against RT activity” value in the data set with Friend leukemia virus was 42%.

The record behind these values is US7026469B2, “Compositions and methods of double-targeting virus infections and cancer cells” (Wake Forest University School of Medicine, priority 2000, dated 2006).
